Results: patent publication US20060240505A1, “Identification of Targets of Antimicrobial Compounds” (priority 2000, published 2006)
Converted amounts (≈) assume the structure as drawn. Read-outs that look alike come from different tables or passages of the source.

Columns and labels:
[1] = test system: RN4220/pYH4; assay: MIC against S. aureus RN4220 carrying empty expression vector pYH4 (control), with and without inducer; format: cell-based
Procedure: (§1) The pYH4 expression vector was used to clone the FabI ORF and it served as a control for the experiment.
(§2) The murA1 ORF is cloned into the pYH4 expression vector, the features of which are described above, and the anhydrotetracycline inducer is added to a sample containing the murA1 ORF. In addition, a control sample containing only the vector is induced and the MICs of the induced and uninduced vector are determined. […] This confirms that murA1 is a target of phosphomycin.
as §2, with “metRS” for “murA1”, “ORF. The MICs for the anitmicrobial compound of induced and uninduced samples are determined.” for “ORF.”, “the exemplified antimicrobial compound.” for “phosphomycin.”

[2] = test system: RN4220/pYH4-fabI; assay: MIC of triclosan against S. aureus RN4220 carrying the fabI ORF clone, with and without inducer; format: cell-based; conditions: Staphylococcus aureus, strain RN4220/pYH4-fabI, read-out: MIC concentration of triclosan necessary to inhibit the strain
Description: This confirms that FabI is a target of triclosan.
as §1

[3] = test system: RN4220/pYH4 and RN4220/pYH4-fabI mixed in the ratio of 100:1; assay: Selection of triclosan resistant colonies on TSA plates from a mixed culture; format: cell-based, S. aureus; conditions: approximately 1,000 bacterial cells plated
Procedure: In the experiment, a S. aureus strain with expression vector (RN4220/pYH4) was combined with the expression vector and FabI open reading frame (RN4220/pYH4-fabI) in the ratio of 100:1. Then, approximately 1,000 bacterial cells of this mixture were plated onto TSA plates containing: (1) no triclosan (-triclosan); (2) 0.25 μg/ml of triclosan; and (3) 0.25 μg/ml of triclosan plus 0.4 μg/ml anhydrotetracycline inducer. […] The third plate was indicative of FabI-containing clones which are confirmed to be targets of the triclosan antimicrobial compound.

[4] = test system: RN4220/pYH4MurA1; assay: MIC of phosphomycin against S. aureus RN4220 carrying the murA1 ORF clone, with and without inducer; format: cell-based
Procedure: as §2

Structure (SMILES) | MIC ([1]; Staphylococcus aureus, strain RN4220/pYH4, −inducer, read-out: MIC concentration of triclosan necessary to inhibit the strain) | MIC concentration of triclosan necessary to inhibit the strain ([1]; strain RN4220/pYH4, +inducer) | MIC ([2]; +inducer) | MIC ([2]; −inducer) | colonies grown on TSA plate ([3]; 0.25 μg/ml triclosan plus 0.4 μg/ml anhydrotetracycline inducer) | colonies grown on TSA plate ([3]; 0.25 μg/ml triclosan, no inducer) | MIC of phosphomycin ([1]; strain RN4220/pYH4, +ATc) | MIC of phosphomycin ([1]; strain RN4220/pYH4, −Atc) | MIC of the induced murA1 gene relative to the uninduced vector alone ([4]; induced murA1 clone vs uninduced vector) | MIC of phosphomycin ([4]; strain RN4220/pYH4MurA1, +ATc) | MIC of phosphomycin ([4]; strain RN4220/pYH4MurA1, −Atc) | MIC of the uninduced murA1 gene relative to the uninduced vector alone ([4]; uninduced murA1 clone vs uninduced vector)
Oc1cc(Cl)ccc1Oc1ccc(Cl)cc1Cl [triclosan] | 0.0625 µg/mL (≈ 0.216 µM) | 0.0625 µg/mL | 1 µg/mL | 0.0625 µg/mL | 15 colonies | no colonies grew |  |  |  |  |  | 
C[C@@H]1O[C@@H]1P(=O)(O)O [phosphomycin] |  |  |  |  |  |  | 2 µg/mL | 4 µg/mL | 64 fold | 256 µg/mL | 32 µg/mL | 8 fold
